Article PMC3597455 (International Journal of Oncology, 2013)

Columns and labels:
CD8-positive cells = test: IFN-γ ELISPOT after mGPC3-1 peptide vaccine in STAM mice; assay type: in vivo, STAM mice C57BL/6N-NASH; conditions: STAM mice immunized seven times with mGPC3-1 peptide vaccine; CD8-positive cells against RMA-S pulsed with mGPC3-1 peptide; n=3
[1] = system: RMA-S pulsed with mGPC3-1 peptide; test: IFN-γ ELISPOT of mGPC3-1 peptide-specific CTL line against peptide-pulsed RMA-S; assay type: cell-based, mouse; conditions: CTL line 1×10^5, RMA-S 5×10^4 pulsed with 10 μg/ml peptide, 20 h
[2] = system: RMA-S pulsed with mGPC3-1 peptide; test: Cytotoxicity assay; assay type: cell-based, mouse; conditions: mGPC3-1-specific CTL line against RMA-S pulsed with mGPC3-1 peptide; calcein AM, 4 h; non-pulsed RMA-S 2.2%
GPC3-specific CTLs = conditions: without an autoimmune response; cited from earlier work

For AMFKNNYPSL [mGPC3-1], the “average number of spots (IFN-γ ELISPOT)” value (CD8-positive cells) was 100±74.3 spots, the “IFN-γ release of CTL line to peptide-pulsed vs non-pulsed RMA-S (in words)” value [1] was “clearly released more IFN-γ” and the “% cytotoxicity” value [2] was 16.4%.
For EYILSLEEL [GPC3_298–306], the “induction of GPC3-specific CTLs (in words)” value (GPC3-specific CTLs) is given as “can induce GPC3-specific CTLs”.
In the case of FVGEFFTDV [GPC3_144–152], the “induction of GPC3-specific CTLs (in words)” value (GPC3-specific CTLs) is listed as “can induce GPC3-specific CTLs”.
